Results published in patent US5686486A, “4-hydroxy-benzopyran-2-ones and 4-hydroxy-cycloalkyl[b]pyran-2-ones useful to treat retroviral infections” (priority 1995, dated 1997).
Where a name gives a salt, the structure may show the parent alone. Read-outs that look alike come from different tables or passages of the source. Each block holds one compound with its values, some of them ahead of it.

Biological target: HIV-1 protease (Human immunodeficiency virus type 1 group M subtype B, UniProt P04585)
Assay: biochemical
Details: for inhibition at 0.123 µM: read-out: HIV-1 Protease % Inhib, dose 0.123 uM; for inhibition at 1 µM: read-out: HIV-1 Protease % Inhib, dose 1.000 uM; for inhibition at 100 µM: read-out: HIV-1 Protease % Inhib, dose 100.000 uM; for IC50: HIV-1 Protease IC50
How it was run: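 Percent inhibition derived from fluorescent cleavage product separated by filtration after streptavidin-bead capture of intact biotin/FITC substrate. Reaction: enzyme (10 μl, 0.1 μM stock) with substrate (20 μl, 0.2 μM stock) and compound, 1 h at room temperature in dark, pH 5.5 acetate buffer with 1.0 M NaCl and 0.05% NP-40.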

[1] = read-out: HIV-1 Protease % Inhib, dose 0.370 uM
[2] = read-out: HIV-1 Protease % Inhib, dose 1.100 uM
[3] = read-out: HIV-1 Protease % Inhib, dose 3.300 uM
[4] = read-out: HIV-1 Protease % Inhib, dose 10.000 uM
[5] = read-out: HIV-1 Protease % Inhib, dose 30.000 uM
[6] = dose 1.100 uM, read-out: HIV-1 Protease % Inhib
[7] = dose 3.300 uM, read-out: HIV-1 Protease % Inhib
[8] = dose 10.000 uM, read-out: HIV-1 Protease % Inhib
[9] = dose 30.000 uM, read-out: HIV-1 Protease % Inhib

SMILES: O=c1oc2c(c(O)c1C(c1cccc(NS(=O)(=O)c3ccc(Cl)cc3Cl)c1)C1CC1)CCCCCC2 (stereo not drawn) [Example 305, 2,4-Dichloro-N-[3-[cyclopropyl(5,6,7,8,9,10-hexahydro-4-hydroxy-2'-oxo-2H-cycloocta[b]pyran-3-yl)methyl]phenyl]-benzenesulfonamide]
- inhibition at 0.123 µM: 60.4%
- inhibition at 0.37 µM [1]: 86.2%
- inhibition at 1.1 µM [2]: 92.4%
- inhibition at 3.3 µM [3]: 95.2%
- inhibition at 10 µM [4]: 99.8%
- inhibition at 30 µM [5]: 107%

SMILES: CCCc1ccc(S(=O)(=O)Nc2cccc(C(c3c(O)c4c(oc3=O)CCCCCC4)C3CC3)c2)cc1 (stereo not drawn) [Example 342, N-[3-[Cyclopropyl(5,6,7,8,9,10-hexahydro-4-hydroxy-2-oxo-2H-cycloocta[b]pyran-3-yl)methyl]phenyl]4-propyl-benzenesulfonamide]
- inhibition at 0.123 µM: 42%
- inhibition at 0.37 µM [1]: 72.9%
- inhibition at 1.1 µM [2]: 88.2%
- inhibition at 3.3 µM [3]: 87.8%
- inhibition at 10 µM [4]: 108%
- inhibition at 30 µM [5]: 105%

- inhibition at 0.37 µM (dose 0.370 uM, read-out: HIV-1 Protease % Inhib): 11.8%
- inhibition at 1.1 µM [6]: 27.9%
- inhibition at 3.3 µM [7]: 84.1%
- inhibition at 10 µM [8]: 103%
- inhibition at 30 µM [9]: 110%
SMILES: O=c1oc2c(c(O)c1C(c1ccc(NS(=O)(=O)c3cccc([N+](=O)[O-])c3)cc1)C1CC1)CCCCCC2 (stereo not drawn) [Example 475, Benzenesulfonamide, 3-nitro-N-[4-[cyclopropyl (5,6,7,8,9,10-hexahydro-4-hydroxy-2-oxo-2H-cycloocta[b]pyran-3-yl)methyl]phenyl]-]

SMILES: N#Cc1ccccc1S(=O)(=O)Nc1cccc(C(c2c(O)c3c(oc2=O)CCCCCC3)C2CC2)c1 (stereo not drawn) [Example 339, 2-Cyano-N-[3-[cyclopropyl(5,6,7,8,9,10-hexahydro-4-hydroxy-2-oxo-2H-cycloocta[b]pyran-3-yl)methyl]phenyl]-benzenesulfonamide]
- inhibition at 0.123 µM: 53.5%
- inhibition at 0.37 µM [1]: 81.3%
- inhibition at 1.1 µM [2]: 94.9%
- inhibition at 3.3 µM [3]: 99.2%
- inhibition at 10 µM [4]: 105%
- inhibition at 30 µM [5]: 99.8%

SMILES: CCC(c1cccc(NC(=O)CCN)c1)c1c(O)c2ccccc2oc1=O (stereo not drawn) [Example 24, 3-[1-[3-[(3-Amino-1-oxopropyl)amino]phenyl]propyl]-4-hydroxy-coumarin, trifluoroacetate (salt)]
- inhibition at 1 µM: < 10%
- inhibition at 10 µM [4]: 24.2%
- inhibition at 100 µM: 83.7%

SMILES: CCC(c1ccc(OCC(O)CO)cc1)c1c(O)c2ccccc2oc1=O (stereo not drawn) [Example 100, Coumarin, 4-hydroxy-3-[1-[4-(2,3-dihydroxy)propoxyphenyl]propyl]-]
- HIV-1 Protease % Inhib (dose 10.000 uM): < 10%
- HIV-1 Protease % Inhib (dose 100.000 uM): 40.3%
- inhibition at 1 µM: < 10%
- inhibition at 10 µM [4]: 12.3%
- inhibition at 100 µM: 53%

SMILES: CCC(c1ccccc1)c1c(O)c2cc(N)ccc2oc1=O (stereo not drawn) [Example 96, Coumarin, 6-amino-4-hydroxy-3-(1-phenylpropyl)-]
- inhibition at 1 µM: < 10%
- inhibition at 10 µM [4]: < 10%
- inhibition at 100 µM: 48.7%

- inhibition at 1.1 µM [6]: 28.9%
- inhibition at 3.3 µM [7]: 73%
- inhibition at 10 µM [8]: 90.2%
- inhibition at 30 µM [9]: 94.6%
SMILES: O=c1oc2c(c(O)c1C(c1ccc(CO)o1)C1CC1)CCCCCC2 (stereo not drawn) [Example 383]

SMILES: CCCCC(c1cccc(NS(=O)(=O)c2ccc(C#N)cc2)c1)c1c(O)c2c(oc1=O)CCCCCC2 (stereo not drawn) [Example 421, Benzenesulfonamide, 4-cyano-N-[3-[1-(5,6,7,8,9,10-hexahydro-4-hydroxy-2-oxo-2H-cycloocta[b]pyran-3-yl)pentyl]phenyl]-]
- inhibition at 0.123 µM: 93.9%
- inhibition at 0.37 µM [1]: 104%
- inhibition at 1.1 µM [2]: 99.1%
- inhibition at 3.3 µM [3]: 97.9%
- inhibition at 10 µM [4]: 108%
- inhibition at 30 µM [5]: 90%

SMILES: CCC(c1ccc(O)cc1)c1c(O)c2ccccc2oc1=O (stereo not drawn) [Example 85, Coumarin, 4-hydroxy-3-[1-(4-hydroxyphenyl)propyl]-]
- inhibition at 1 µM: < 10%
- inhibition at 10 µM [4]: 31.6%
- inhibition at 100 µM: 100%

SMILES: O=c1oc2ccccc2c(O)c1C(CCc1ccccc1)c1ccccc1 (stereo not drawn) [Example 16, 4-Hydroxy-3-(1,3-diphenylpropyl)-coumarin]
- inhibition at 1 µM: < 10%
- inhibition at 10 µM [4]: 48.3%

SMILES: CCC(c1ccccc1)c1c(O)c2cc(F)ccc2oc1=O (stereo not drawn) [Example 87, Coumarin, 6-fluoro-4-hydroxy-3-(1-phenylpropyl)-]
- inhibition at 1 µM: < 10%
- inhibition at 10 µM [4]: 20.6%
- inhibition at 100 µM: 79%

SMILES: CCC(c1cccc(NC(=O)c2ccccn2)c1)c1c(O)c2ccccc2oc1=O (stereo not drawn) [Example 45, Coumarin, 4-hydroxy-3-[1-[3-[[(2-pyridinyl)carbonyl]amino]phenyl]propyl]-]
- inhibition at 1 µM: < 10%
- inhibition at 10 µM [4]: 28.5%
- inhibition at 100 µM: 90.9%

- inhibition at 10 µM [8]: 19.4%
- inhibition at 30 µM [9]: 33.1%
SMILES: CC(C)C(c1cccc(NC(=O)OCc2ccccc2)c1)c1c(O)c2c(oc1=O)CCCCCC2 (stereo not drawn) [Example 370, [3-[1-(5,6,7,8,9,10-Hexahydro-4-hydroxy-2-oxo-2H-cycloocta[b]pyran-3-yl)-2-methylpropyl]phenyl]-carbamic acid, phenylmethyl ester]

SMILES: CCC(c1cccc(NC(=O)CCc2cccc3ccccc23)c1)c1c(O)c2ccccc2oc1=O (stereo not drawn) [Example 64, Coumarin, 4-hydroxy-3-[1-[3-[[3-(1-naphthyl)-1-oxopropyl]amino]phenyl]propyl]-]
- IC50: 5800 nM
- inhibition at 1 µM: 29.1%
- inhibition at 10 µM [4]: 78.1%
- inhibition at 100 µM: 104%

SMILES: COc1ccc2c(O)c(C(c3ccccc3)C3CC3)c(=O)oc2c1 (stereo not drawn) [Example 38, 3-cyclopropylphenylmethyl-4-hydroxy-7-methoxy coumarin]
- IC50: 2800 nM
- inhibition at 1 µM: 18.6%
- inhibition at 10 µM [4]: 83.2%
- inhibition at 100 µM: 93.4%

SMILES: O=c1oc2c(c(O)c1C(c1cccc(NS(=O)(=O)c3cc(Cl)ccc3Cl)c1)C1CC1)CCCCCC2 (stereo not drawn) [Example 271, 2,5-Dichloro-N-[3-[cyclopropyl(5,6,7,8,9,10-hexahydro-4-hydroxy-2-oxo-2H-cycloocta[b]pyran-3-yl)methyl]phenyl]-benzenesulfonamide]
- inhibition at 0.37 µM [1]: 16.7%
- inhibition at 1.1 µM [2]: 47.5%
- inhibition at 3.3 µM [3]: 75.3%
- inhibition at 10 µM [4]: 88.8%
- inhibition at 30 µM [5]: 94.2%

SMILES: CCC(c1ccccc1)c1c(O)c2ccc(C(F)(F)F)cc2oc1=O (stereo not drawn) [Example 86, Coumarin, 7-trifluoromethyl-4-hydroxy-3-(1-phenylpropyl)-]
- inhibition at 1 µM: 10.5%
- inhibition at 10 µM [4]: 56.9%
- inhibition at 100 µM: 95.8%

SMILES: CCOc1ccc2c(O)c(C(CC)c3ccccc3)c(=O)oc2c1 (stereo not drawn) [Example 82, Coumarin, 7-ethoxy-3-(α-ethylbenzyl)-4-hydroxy-]
- IC50: 900 nM
- inhibition at 1 µM: 30.9%
- inhibition at 10 µM [4]: 69.7%
- inhibition at 100 µM: 89%

- inhibition at 1.1 µM [6]: 16.1%
- inhibition at 3.3 µM [7]: 59.2%
- inhibition at 10 µM [8]: 102%
- inhibition at 30 µM [9]: 118%
SMILES: O=C(Nc1ccc(C(c2c(O)c3c(oc2=O)CCCCCC3)C2CC2)cc1)OCc1ccccc1 (stereo not drawn) [Example 470, Carbamic acid, [4-[cyclopropyl (5,6,7,8,9,10-hexahydro-4-hydroxy-2-oxo-2H-cycloocta[b]pyran-3-yl)methyl]phenyl]-phenylmethyl ester]

SMILES: COc1ccc2c(O)c(C(c3cccc(NC(=O)OCc4ccccc4)c3)C3CC3)c(=O)oc2c1 (stereo not drawn) [Example 166, Carbamic acid, [3-[cyclopropyl(4-hydroxy-7-methoxy-2-oxo-2H-1-benzopyran-3-yl)methyl]phenyl]-, phenylmethyl ester]
- inhibition at 0.41 µM (read-out: HIV-1 Protease % Inhib, dose 0.410 uM): < 10%
- inhibition at 1.23 µM (read-out: HIV-1 Protease % Inhib, dose 1.230 uM): 13.2%
- inhibition at 3.7 µM (read-out: HIV-1 Protease % Inhib, dose 3.700 uM): 33.4%
- inhibition at 11 µM (read-out: HIV-1 Protease % Inhib, dose 11.000 uM): 58.9%
- inhibition at 33 µM (read-out: HIV-1 Protease % Inhib, dose 33.000 uM): 89.1%
- inhibition at 100 µM: 100%

SMILES: CC(C)C(c1cccc(NS(=O)(=O)c2ccc(F)cc2)c1)c1c(O)c2c(oc1=O)CCCCCC2 (stereo not drawn) [Example 418, Benzenesulfonamide, N-[3-[1-(5,6,7,8,9,10-hexahydro-4-hydroxy-2-oxo-2H-cycloocta[b]pyran-3-yl)-2-methylpropyl]phenyl]4-fluoro-]
- inhibition at 0.123 µM: 81.8%
- inhibition at 0.37 µM [1]: 87.5%
- inhibition at 1.1 µM [2]: 98.6%
- inhibition at 3.3 µM [3]: 110%
- inhibition at 10 µM [4]: 119%
- inhibition at 30 µM [5]: 123%

- inhibition at 1.1 µM [6]: 26.2%
- inhibition at 3.3 µM [7]: 65.2%
- inhibition at 10 µM [8]: 88%
- inhibition at 30 µM [9]: 91.4%
SMILES: CCC(c1cccc(N)c1)c1c(O)c2c(oc1=O)CCCCCC2 (stereo not drawn) [Example 218, 2H-Cycloocta[b]pyran-2-one, 3-[1-(3-aminophenyl)propyl]-5,6,7,8,9,10-hexahydro-4-hydroxy-]

SMILES: O=c1oc2c(c(O)c1C(c1cccc(NS(=O)(=O)c3ccc4ccccc4c3)c1)C1CC1)CCCCCC2 (stereo not drawn) [Example 266, N-[3-[Cyclopropyl(5,6,7,8,9,10-hexahydro-4-hydroxy-2-oxo-2H-cycloocta[b]pyran-3-yl)methyl]phenyl]-2-naphthalenesulfonamide]
- inhibition at 0.123 µM: 79.8%
- inhibition at 0.37 µM [1]: 88.4%
- inhibition at 1.1 µM [2]: 104%
- inhibition at 3.3 µM [3]: 100%
- inhibition at 10 µM [4]: 105%
- inhibition at 30 µM [5]: 103%

- inhibition at 10 µM [8]: 83.8%
- inhibition at 30 µM [9]: 78.8%
SMILES: O=c1oc2c(c(O)c1C(c1cccc(N3CCCS3(=O)=O)c1)C1CC1)CCCCCC2 [Example 365B (First Title Compound), 2H-Cycloocta[b]pyran-2-one, 3-[cyclopropyl[3-(2-isothiazolidinyl)phenyl]methyl]-5,6,7,8,9,10-hexahydro-4-hydroxy-,S,S-dioxide]
